From US20240376108A1, “SALT AND CRYSTAL FORM OF PYRAZOLE-CONTAINING POLYCYCLIC DERIVATIVE, AND PREPARATION METHOD THEREFOR AND USE THEREOF” (Shanghai Hansoh Biomedical Co., Ltd., priority 2021, published 2024)

Tests used:
[1] = Metabolic stability in liver microsome (mouse); assay type: in vitro ADME
Procedure: (§1) Test Example 5. Assay of Metabolic Stability in Liver Microsome
(§2) 1. Experimental objective: The objective of the experiment is to determine the stability of the compounds of the Examples in liver microsome of mouse, rat, dog and human.
(§3) 2.1 Formulation of the working solution of the compound: Formulation of the working solution of the compound: The stock solution of the compound was added to phosphate buffer, and the final concentration was 20 μM.
(§4) 2.2 Formulation of the working solution of liver microsome: Liver microsome was diluted with 100 mM phosphate buffer to obtain a final concentration of 0.625 mg/mL.
(§5) 2.3 Formulation of NADPH and UDPGA: NADPH (reduced nicotinamide adenine dinucleotide phosphate) and UDPGA (uridine diphosphate glucuronic acid) were weighed respectively, followed by addition of 100 mM phosphate buffer. The final concentrations were 20 mM.
(§6) 2.4 Formulation of the channel-forming reagent: 1 mg of Alamethicin was weighed, to which 200 μL of DMSO was added to obtain a 5 mg/mL solution. The solution was diluted with phosphate buffer to obtain a final concentration of 50 μg/mL.
(§7) 2.5 Formulation of the reaction stop solution: Stop solution: Cold acetonitrile containing 100 ng/mL labetalol hydrochloride and 400 ng/mL tolbutamide as internal standards.
(§8) 2.6 Incubation procedure: 400 μL of the prepared liver microsome, 25 μL of the working solution of the compound and 25 μL of Alamethicin were added to a 96-well plate successively, which was then pre-incubated at 37° C. for 10 minutes. 50 μL of the prepared NADPH/UDPGA was added to initiate the reaction, and the plate was incubated at 37° C. The total volume of the reaction system was 500 μL. The final contents of the components were as follows:
(§9) 2.7.1 Chromatographic conditions: • Instrument: Shimadzu LC-30 AD; Chromatographic column: XBridge® C18 (50*4.6 mm, particle size: 5 μm); • Mobile phase: A: 0.1% formic acid solution, B: methanol • Eluent gradient: 0.2˜1.6 min 5% A to 95% A, 3.0˜3.1 min 95% A to 5% A • Running time: 4.0 min.
(§10) 2.7.2 Mass spectrometry conditions: • Instrument: API5500 liquid chromatography-mass spectrometer, AB Sciex; • Ion source: Electrospray ionization source (ESI); Drying gas: N2, temperature: 500° C.; • Electrospray voltage: 5000V; Detection method: Positive ion detection; • Scanning mode: Mode of reaction monitoring (MRM).

[2] = Metabolic stability in liver microsome (rat); assay type: in vitro ADME; details: rat liver microsome, 60 min
Procedure: as §1, §2, §3, §4, §5, §6, §7, §8, §9, §10

[3] = Metabolic stability in liver microsome (human); assay type: in vitro ADME
Procedure: as §1, §2, §3, §4, §5, §6, §7, §8, §9, §10

[4] = Pharmacokinetic assay of the salt forms in rats (10 mg/kg); assay type: in vivo; details: SD rats
Procedure: 2.3 Pharmacokinetic assay of the methanesulfonate in rats
2.3.1. Study objective: SD rats were used as test animals. The pharmacokinetic behavior of various salt forms of 2-(2-cyano-5-oxo-8-(trifluoromethyl)pyrazolo[1,5-a]pyrido[3,2-e]pyrimidin-4(5H)-yl)-N-(5-fluoropyridin-2-yl)acetamide was studied in rat body (plasma) by orally administration at a dose of 10 mg/kg.
2.3.2.4 Administration: After an overnight fast, male SD rats (3 rats per group) were administered p.o. with the test compound at a dose of 10 mg/kg and a volume of 10 mL/kg.
2.3.2.5 Sample collection: 0.2 mL of blood was taken from the jugular vein of the rat before administration and at 0, 0.5, 1, 2, 4, 6, 8 and 24 hours after administration. The samples were stored in EDTA-K2 tubes, and centrifuged for 6 minutes at 4° C., 6000 rpm to separate the plasma. The plasma samples were stored at −80° C.
1) 160 μL of acetonitrile was added to 40 μL of the plasma sample for precipitation, and then the mixture was centrifuged at 3500×g for 5 to 20 minutes.
2) After the above process, 100 μL of the supernatant was taken to analyze the concentration of the test compound by LC/MS/MS.
2.3.2.7 Liquid chromatography analysis • Liquid chromatography condition: Shimadzu LC-20AD pump • Mass spectrometry condition: AB Sciex API 4000 mass spectrometer • Chromatographic column: phenomenex Gemiu 5 um C18 50×4.6 mm • Mobile phase: Eluent A was 0.1% formic acid in water, and Eluent B was acetonitrile • Flow rate: 0.8 mL/min • Elution time: 0-4.0 minutes, the eluent is as follows:
The main parameters of pharmacokinetics were calculated by WinNonlin 8.2.

[5] = Solid stability experiment (high temperature, high humidity, high temperature and high humidity); assay type: physicochemical
Procedure: 4.1.1 Experimental objective: To investigate the physical and chemical stability of the crystal form of the compound under the conditions of high temperature, high humidity, as well as high temperature and high humidity, so as to provide a basis for crystal form screening and storage of the crystal form of the compound.
The content of the salt was determined by HPLC using the external standard method, and the change of relevant substances was calculated by using the chromatographic peak area normalization method.

[6] = Hygroscopicity experiment (DVS); assay type: physicochemical; details: 25° C.
From the text: 7.1 Hygroscopicity experiment of crystal forms of different salts of compound 2-(2-cyano-5-oxo-8-(trifluoromethyl)pyrazolo[1,5-a]pyrido[3,2-e]pyrimidin-4(5H)-yl)-N-(5-fluoropyridin-2-yl)acetamide
7.1.1 Experimental objective: To investigate the hygroscopicity of crystal forms of different salts of compound 2-(2-cyano-5-oxo-8-(trifluoromethyl)pyrazolo[1,5-a]pyrido[3,2-e]pyrimidin-4(5H)-yl)-N-(5-fluoropyridin-2-yl)acetamide at different relative humidity, so as to provide a basis for storage.
7.1.2 Experimental protocol: Crystal forms of different salts of the compound were placed in saturated water vapor with different relative humidity to achieve dynamic equilibrium between the compound and water vapor, and the percentage of hygroscopic weight gain of the compound after equilibrium was calculated.

[7] = High humidity (92.5% RH), Day 7
[8] = High humidity (92.5% RH), Day 14
[9] = High temperature (60° C.), Day 7
[10] = High temperature (60° C.), Day 14
[11] = High temperature and high humidity (50° C.&75% RH), Day 7
[12] = High temperature and high humidity (50° C.&75% RH), Day 14
[13] = Cycle 1, target relative humidity 0.0%
[14] = Cycle 1, target relative humidity 10.0%
[15] = Cycle 1, target relative humidity 20.0%
[16] = Cycle 1, target relative humidity 30.0%
[17] = Cycle 1, target relative humidity 40.0%
[18] = Cycle 1, target relative humidity 50.0%
[19] = Cycle 1, target relative humidity 60.0%
[20] = Cycle 1, target relative humidity 70.0%
[21] = Cycle 1, target relative humidity 80.0%
[22] = Cycle 1, target relative humidity 90.0%
[23] = Cycle 1, target relative humidity 95.0%
[24] = Cycle 2, target relative humidity 0.0%
[25] = Cycle 2, target relative humidity 10.0%
[26] = Cycle 2, target relative humidity 20.0%
[27] = Cycle 2, target relative humidity 30.0%
[28] = Cycle 2, target relative humidity 40.0%
[29] = Cycle 2, target relative humidity 50.0%
[30] = Cycle 2, target relative humidity 60.0%
[31] = Cycle 2, target relative humidity 70.0%
[32] = Cycle 2, target relative humidity 80.0%
[33] = Cycle 2, target relative humidity 90.0%
[34] = Cycle 2, target relative humidity 95.0%

## CCc1cc2n(CC(=O)Nc3ccc(F)cn3)c(=O)c3ccc(C(F)(F)F)nc3n2n1 [Example 12, 2-(2-Ethyl-5-oxo-8-(trifluoromethyl)pyrazolo[1,5-a]pyrido[3,2-e]pyrimidin-4(5H)-yl)-N-(5-fluoropyridin-2-yl)acetamide]
[1]
  Mouse Remaining (%, 60 min): 81.3%
[2]
  Rat Remaining (%, 60 min): 104.4%
[3]; human liver microsome 0.5 mg/mL, compound 1 μM, NADPH/UDPGA
  Human t1/2: ∞
[3]; human liver microsome, 60 min
  Human Remaining (%, 60 min): 113.9%

## N#Cc1cc2n(CC(=O)Nc3ccc(F)cn3)c(=O)c3ccc(C(F)(F)F)nc3n2n1.O=S(=O)(O)O [Sulfate (crystal form B), 2-(2-cyano-5-oxo-8-(trifluoromethyl)pyrazolo[1,5-a]pyrido[3,2-e]pyrimidin-4(5H)-yl)-N-(5-fluoropyridin-2-yl)acetamide sulfate]
[4]; 10 mg/kg
  exposure AUC and maximum plasma concentration Cmax compared with the free base: superior
[4]; male, rat, po, p.o. 10 mg/kg, plasma, vehicle 0.5% HPMC, read-out: Area under curve AUC0-t
  AUC(0-t): 21600 ng·h/mL
[4]; male, rat, po, p.o. 10 mg/kg, plasma, vehicle 0.5% HPMC, read-out: Average residence time MRT0-∞
  MRT inf: 4.6 h
[4]; male, rat, po, p.o. 10 mg/kg, plasma, vehicle 0.5% HPMC, read-out: Half life t1/2 (converted)
  half-life: 168 min
[4]; male, rat, po, p.o. 10 mg/kg, plasma, vehicle 0.5% HPMC, read-out: Peak time tmax
  Tmax: 2 h
[4]; male, rat, po, p.o. 10 mg/kg, plasma, vehicle 0.5% HPMC, read-out: Plasma concentration Cmax
  Cmax: 3080 ng/mL
[5]; 92.5% RH, 7 and 14 days
  solid stability under high humidity: stable
[5]; [7]
  % increase of total impurities: <0.1%
  % maximum increase of single impurity: <0.1%
[5]; [8]
  % increase of total impurities: <0.1%
  % maximum increase of single impurity: <0.1%
[5]; [9]
  % increase of total impurities: >0.2%
  % maximum increase of single impurity: <0.1%
[5]; [10]
  % increase of total impurities: >0.4%
  % maximum increase of single impurity: >0.1%
[5]; [11]
  % increase of total impurities: >0.2%
  % maximum increase of single impurity: >0.1%
[5]; [12]
  % increase of total impurities: >0.2%
  % maximum increase of single impurity: >0.1%
[6]; [13]
  % percentage of mass change, Desorption: −0.027%
  % percentage of mass change, Sorption: −0.002%
[6]; [14]
  % percentage of mass change, Desorption: 0.087%
  % percentage of mass change, Sorption: 0.099%
[6]; [15]
  % percentage of mass change, Desorption: 0.168%
  % percentage of mass change, Sorption: 0.171%
[6]; [16]
  % percentage of mass change, Desorption: 0.250%
  % percentage of mass change, Sorption: 0.236%
[6]; [17]
  % percentage of mass change, Desorption: 0.341%
  % percentage of mass change, Sorption: 0.303%
[6]; [18]
  % percentage of mass change, Desorption: 0.456%
  % percentage of mass change, Sorption: 0.376%
[6]; [19]
  % percentage of mass change, Desorption: 0.540%
  % percentage of mass change, Sorption: 0.455%
[6]; [20]
  % percentage of mass change, Desorption: 0.652%
  % percentage of mass change, Sorption: 0.552%
[6]; [21]
  % percentage of mass change, Desorption: 0.777%
  % percentage of mass change, Sorption: 0.691%
[6]; [22]
  % percentage of mass change, Desorption: 1.118%
  % percentage of mass change, Sorption: 1.010%
[6]; [23]
  % percentage of mass change, Desorption: 1.608%
  % percentage of mass change, Sorption: 1.608%
[6]; [24]
  % percentage of mass change, Desorption: −0.051%
  % percentage of mass change, Sorption: −0.027%
[6]; [25]
  % percentage of mass change, Desorption: 0.065%
  % percentage of mass change, Sorption: 0.070%
[6]; [26]
  % percentage of mass change, Desorption: 0.149%
  % percentage of mass change, Sorption: 0.147%
[6]; [27]
  % percentage of mass change, Desorption: 0.230%
  % percentage of mass change, Sorption: 0.218%
[6]; [28]
  % percentage of mass change, Desorption: 0.322%
  % percentage of mass change, Sorption: 0.287%
[6]; [29]
  % percentage of mass change, Desorption: 0.422%
  % percentage of mass change, Sorption: 0.369%
[6]; [30]
  % percentage of mass change, Desorption: 0.529%
  % percentage of mass change, Sorption: 0.450%
[6]; [31]
  % percentage of mass change, Desorption: 0.632%
  % percentage of mass change, Sorption: 0.545%
[6]; [32]
  % percentage of mass change, Desorption: 0.761%
  % percentage of mass change, Sorption: 0.682%
[6]; [33]
  % percentage of mass change, Desorption: 1.087%
  % percentage of mass change, Sorption: 1.007%
[6]; [34]
  % percentage of mass change, Desorption: 1.618%
  % percentage of mass change, Sorption: 1.618%
